Among the data in patent US11964953B2, “Substituted aminothiazoles as DGKzeta inhibitors for immune activation” (Bayer Aktiengesellschaft, priority 2020, dated 2024) are IC50 values, retold here.

This assay deals with human DGKζ (Homo sapiens (Human), UniProt Q13574). Kind of assay: Human DGKζ kinase activity inhibition assay (ADP-Glo). The format is biochemical. The conditions noted are these: in vitro human DGKζ kinase activity inhibition assay; read-out: IC50. A digest of the protocol:
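Enzyme was C-terminally FLAG-tagged full-length recombinant human DGKζ from baculovirus-infected insect cells. Substrate preparation used octyl-β-D-glucopyranoside in 50 mM MOPS pH 7.4 with sonication; ADP generated was quantified by ADP-Glo luminescence as activity measure.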

A value given as a limit tells only on which side of the number the result lay.

Sequence of human DGKζ (Q13574 other isoform, or with tags, fused parts or gaps): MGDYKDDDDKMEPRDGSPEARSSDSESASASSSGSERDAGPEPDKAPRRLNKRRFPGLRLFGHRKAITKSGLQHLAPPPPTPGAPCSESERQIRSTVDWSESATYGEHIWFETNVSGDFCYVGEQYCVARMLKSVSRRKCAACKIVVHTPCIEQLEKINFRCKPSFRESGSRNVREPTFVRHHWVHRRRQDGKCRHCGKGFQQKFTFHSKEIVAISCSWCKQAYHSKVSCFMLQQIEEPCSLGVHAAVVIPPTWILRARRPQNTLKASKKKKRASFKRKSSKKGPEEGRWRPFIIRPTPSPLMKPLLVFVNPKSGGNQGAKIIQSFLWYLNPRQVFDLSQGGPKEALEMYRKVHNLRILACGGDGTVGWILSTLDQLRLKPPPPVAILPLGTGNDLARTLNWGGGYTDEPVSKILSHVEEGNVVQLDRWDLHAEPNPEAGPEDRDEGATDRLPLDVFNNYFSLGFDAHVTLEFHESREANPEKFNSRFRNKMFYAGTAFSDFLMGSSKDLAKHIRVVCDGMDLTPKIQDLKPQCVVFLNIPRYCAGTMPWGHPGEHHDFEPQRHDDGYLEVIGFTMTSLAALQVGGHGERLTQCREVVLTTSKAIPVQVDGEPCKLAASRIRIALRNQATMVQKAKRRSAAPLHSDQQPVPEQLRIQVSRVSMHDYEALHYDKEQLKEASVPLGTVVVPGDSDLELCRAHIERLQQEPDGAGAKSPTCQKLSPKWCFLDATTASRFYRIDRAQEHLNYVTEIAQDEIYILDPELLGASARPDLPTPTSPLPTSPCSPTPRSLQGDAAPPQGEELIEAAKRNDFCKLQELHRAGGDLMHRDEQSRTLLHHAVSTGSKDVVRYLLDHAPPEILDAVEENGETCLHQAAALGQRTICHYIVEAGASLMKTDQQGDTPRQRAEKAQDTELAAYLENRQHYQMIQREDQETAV

Broadly, the IC50 is the concentration that inhibits the measured activity by half. For the molecule `Cc1cccc(N(c2nc(N)c(C(=O)c3ccccc3)s2)C(C)C(N)=O)c1` (single isomer, unassigned) [Example 76.1, 2-(N-(4-amino-5-benzoyl-thiazol-2-yl)-3-methyl-anilino)propanamide], the IC50 came out at 114 nM.
In the case of `Cc1ccccc1N(c1nc(N)c(C(=O)c2ccccc2)s1)C(C)C(N)=O` (single isomer, unassigned) [Example 77.1, 2-(N-(4-amino-5-benzoyl-thiazol-2-yl)-2-methyl-anilino)propanamide] it was 234 nM.
For the molecule `Cc1ccccc1N(c1nc(N)c(C(=O)c2ccccc2)s1)C(C)C(N)=O` (single isomer, unassigned) [Example 77.2, 2-(N-(4-amino-5-benzoyl-thiazol-2-yl)-2-methyl-anilino)propanamide], the IC50 was 10200 nM.
In the case of `CC(C(N)=O)N(c1cnn(C)c1)c1nc(N)c(C(=O)c2ccccc2)s1` (single isomer, unassigned) [Example 78.1, 2-[(4-amino-5-benzoyl-thiazol-2-yl)-(1-methylpyrazol-4-yl)amino]propanamide] it was greater than 20000 nM.
In the case of `CC(C(N)=O)N(c1cnn(C)c1)c1nc(N)c(C(=O)c2ccccc2)s1` (single isomer, unassigned) [Example 78.2, 2-[(4-amino-5-benzoyl-thiazol-2-yl)-(1-methylpyrazol-4-yl)amino]propanamide], the IC50 worked out at 7550 nM.
In the case of `CC(C(N)=O)N(c1cccnc1)c1nc(N)c(C(=O)c2ccccc2)s1` (single isomer, unassigned) [Example 79.1, 2-[(4-amino-5-benzoyl-thiazol-2-yl)-(3-pyridyl)amino]propanamide] it was 1660 nM; in that of `CC(C(N)=O)N(c1cccnc1)c1nc(N)c(C(=O)c2ccccc2)s1` (single isomer, unassigned) [Example 79.2, 2-[(4-amino-5-benzoyl-thiazol-2-yl)-(3-pyridyl)amino]propanamide], 2390 nM.
Next, `CC(C(N)=O)N(c1ccc(F)cc1)c1nc(N)c(C(=O)c2ccc(OCC(=O)NC34CC5CC(CC(C5)C3)C4)cc2)s1` (single isomer, unassigned) [Example 142, 2-(N-[5-[4-[2-(1-adamantylamino)-2-oxo-ethoxy]benzoyl]-4-amino-thiazol-2-yl]-4-fluoro-anilino)propanamide]: 14.5 nM.
In the case of `CC(C(N)=O)N(c1ccc(F)c(Cl)c1)c1nc(N)c(C(=O)c2ccncc2)s1` (single isomer, unassigned) [Example 160.2, 2-(N-[4-amino-5-(pyridine-4-carbonyl)thiazol-2-yl]-3-chloro-4-fluoro-anilino)propanamide] it was 8450 nM; in that of `COc1ccc(C(=O)c2sc(N(c3ccc(F)c(Cl)c3)C(C)C(N)=O)nc2N)cc1` (single isomer, unassigned) [Example 161.1, 2-(N-[4-amino-5-(4-methoxybenzoyl)thiazol-2-yl]-3-chloro-4-fluoro-anilino)propanamide], 9 nM.
With `COc1ccc(C(=O)c2sc(N(c3ccc(F)c(Cl)c3)C(C)C(N)=O)nc2N)cc1` (single isomer, unassigned) [Example 161.2, 2-(N-[4-amino-5-(4-methoxybenzoyl)thiazol-2-yl]-3-chloro-4-fluoro-anilino)propanamide], the IC50 is 2570 nM.
On to `CC(C(N)=O)N(c1ccc(F)cc1)c1nc(N)c(C(=O)c2ccc(OC(F)F)nc2)s1` (single isomer, unassigned) [Example 162.1, 2-(N-[4-amino-5-[6-(difluoromethoxy)pyridine-3-carbonyl]thiazol-2-yl]-4-fluoro-anilino)propanamide], for which the IC50 was determined as 12 nM.
Next, `CC(C(N)=O)N(c1ccc(F)cc1)c1nc(N)c(C(=O)c2ccc(OC(F)F)nc2)s1` (single isomer, unassigned) [Example 162.2, 2-(N-[4-amino-5-[6-(difluoromethoxy)pyridine-3-carbonyl]thiazol-2-yl]-4-fluoro-anilino)propanamide]: 6570 nM; `CC(C(N)=O)N(c1ccc(F)c(F)c1)c1nc(N)c(C(=O)c2ccc(OC(F)F)nc2)s1` (single isomer, unassigned) [Example 163.2, 2-(N-[4-amino-5-[6-(difluoromethoxy)pyridine-3-carbonyl]thiazol-2-yl]-3,4-difluoro-anilino)propanamide]: 1090 nM; `CC(C(N)=O)N(c1ccc(Cl)c(F)c1)c1nc(N)c(C(=O)c2ccc(OC(F)F)nc2)s1` (single isomer, unassigned) [Example 164.1, 2-(N-[4-amino-5-[6-(difluoromethoxy)pyridine-3-carbonyl]thiazol-2-yl]-4-chloro-3-fluoro-anilino)propanamide]: 5 nM.
Next, `CC(C(N)=O)N(c1ccc(F)c(F)c1)c1nc(N)c(C(=O)c2ccc(OCc3ccccc3)cc2)s1` (single isomer, unassigned) [Example 165.1, 2-(N-[4-amino-5-(4-benzyloxybenzoyl)thiazol-2-yl]-3,4-difluoro-anilino)propanamide]: 2 nM.
In the case of `CC(C(N)=O)N(c1ccc(F)c(F)c1)c1nc(N)c(C(=O)c2ccc(OCc3ccccc3)cc2)s1` (single isomer, unassigned) [Example 165.2, 2-(N-[4-amino-5-(4-benzyloxybenzoyl)thiazol-2-yl]-3,4-difluoro-anilino)propanamide] it was 331 nM; in that of `CC(C(N)=O)N(c1ccc(Cl)c(F)c1)c1nc(N)c(C(=O)c2ccc(OCc3ccccc3)cc2)s1` (single isomer, unassigned) [Example 166.2, 2-(N-[4-amino-5-(4-benzyloxybenzoyl)thiazol-2-yl]-4-chloro-3-fluoro-anilino)propanamide], 129 nM; in that of `CC(C(N)=O)N(c1ccc(F)c(F)c1)c1nc(N)c(C(=O)c2ccc(NC(=O)OCc3ccccc3)cc2)s1` (single isomer, unassigned) [Example 167.2, Benzyl N-[4-[4-amino-2-(N-(2-amino-1-methyl-2-oxo-ethyl)-3,4-difluoro-anilino)thiazole-5-carbonyl]phenyl]carbamate], 303 nM.
For the molecule `CC(C(N)=O)N(c1ccc(F)cc1)c1nc(N)c(C(=O)c2ccc(NC(=O)OCc3ccccc3)cc2)s1` (single isomer, unassigned) [Example 169.1, Benzyl N-[4-[4-amino-2-(N-(2-amino-1-methyl-2-oxo-ethyl)-4-fluoro-anilino)thiazole-5-carbonyl]phenyl]carbamate], the IC50 was 3 nM.
Next, `CC(C(N)=O)N(c1ccc(F)cc1)c1nc(N)c(C(=O)c2ccc(NC(=O)OCc3ccccc3)cc2)s1` (single isomer, unassigned) [Example 169.2, Benzyl N-[4-[4-amino-2-(N-(2-amino-1-methyl-2-oxo-ethyl)-4-fluoro-anilino)thiazole-5-carbonyl]phenyl]carbamate]: 859 nM; `CC(C(N)=O)N(c1ccc(F)cc1)c1nc(N)c(C(=O)c2ccc(OCc3ccccc3)cc2)s1` (single isomer, unassigned) [Example 170.1, 2-(N-[4-amino-5-(4-benzyloxybenzoyl)thiazol-2-yl]-4-fluoro-anilino)propanamide]: 5 nM; `COc1ccc(C(=O)c2sc(N(c3ccc(Cl)c(F)c3)C(C)C(N)=O)nc2N)cn1` (single isomer, unassigned) [Example 172.2, 2-(N-[4-amino-5-(6-methoxypyridine-3-carbonyl)thiazol-2-yl]-4-chloro-3-fluoro-anilino)propanamide]: 4890 nM.
Next, `COc1ccc(N(c2nc(N)c(C(=O)c3ccc(OC(F)F)cc3)s2)C(C)C(N)=O)cc1` (single isomer, unassigned) [Example 174.1, 2-(N-[4-amino-5-[4-(difluoromethoxy)benzoyl]thiazol-2-yl]-4-methoxy-anilino)propanamide]: 26 nM; `COc1ccc(N(c2nc(N)c(C(=O)c3ccc(OC(F)F)cc3)s2)C(C)C(N)=O)cc1` (single isomer, unassigned) [Example 174.2, 2-(N-[4-amino-5-[4-(difluoromethoxy)benzoyl]thiazol-2-yl]-4-methoxy-anilino)propanamide]: 3790 nM.
Next, `COc1ccc(C(=O)c2sc(N(c3ccc(F)cc3)C(C)C(N)=O)nc2C)cc1` (single isomer, unassigned) [Example 176.2, 2-(4-fluoro-N-[5-(4-methoxybenzoyl)-4-methyl-thiazol-2-yl]anilino)propanamide]: 672 nM.
Consider `CC(C(N)=O)N(c1ccc(OCc2ccccc2)cc1)c1nc(N)c(C(=O)c2ccc(OC(F)F)cc2)s1` (single isomer, unassigned) [Example 182.1, 2-(N-[4-amino-5-[4-(difluoromethoxy)benzoyl]thiazol-2-yl]-4-benzyloxy-anilino)propanamide], for which the IC50 is 84 nM.
`CC(C(N)=O)N(c1ccc(OCc2ccccc2)cc1)c1nc(N)c(C(=O)c2ccc(OC(F)F)cc2)s1` (single isomer, unassigned) [Example 182.2, 2-(N-[4-amino-5-[4-(difluoromethoxy)benzoyl]thiazol-2-yl]-4-benzyloxy-anilino)propanamide]: the IC50 turned out to be 10500 nM.
In the case of `CC(C(N)=O)N(c1ccc(F)c(F)c1)c1nc(N)c(C(=O)c2cccnc2)s1` (single isomer, unassigned) [Example 184.1, 2-(N-[4-amino-5-(pyridine-3-carbonyl)thiazol-2-yl]-3,4-difluoro-anilino)propanamide], the IC50 came to 297 nM.
In the case of `CC(C(N)=O)N(c1ccc(F)c(F)c1)c1nc(N)c(C(=O)c2cccnc2)s1` (single isomer, unassigned) [Example 184.2, 2-(N-[4-amino-5-(pyridine-3-carbonyl)thiazol-2-yl]-3,4-difluoro-anilino)propanamide] it was greater than 20000 nM; in that of `Cc1cc(C(=O)c2sc(N(c3ccc(F)cc3)C(C)C(N)=O)nc2N)ccn1` (single isomer, unassigned) [Example 187.1, 2-(N-[4-amino-5-(2-methylpyridine-4-carbonyl)thiazol-2-yl]-4-fluoro-anilino)propanamide], 553 nM.
